The target of data set [1] is T1, mushroom tyrosinase (Agaricus bisporus, UniProt C7FF04).
T1 construct: purchased Sigma-Aldrich
In words: Mushroom tyrosinase inhibition assay. Type of data set: biochemical. The method, then:
Mushroom tyrosinase inhibitory activity was determined as described previously, with minor modifications. L-Tyrosine was used as a substrate to determine enzyme activities. […] These dose-dependent inhibition experiments were carried out three times using three to five different concentrations of test compounds to determine IC50 values. Log–linear curves and their equations were derived from the observed percentages of inhibition.

Data set [2] deals with B16F10 murine melanoma cells. In words: B16F10 cell viability assay (EZ-Cytox). To be noted: concentrations ≤20 μM, 48 h. The format is cell-based. The method, then:
B16F10 murine melanoma cells were obtained from the American Type Culture Collection (ATCC, Manassas, VA, USA). Phosphate buffer solution (PBS), Dulbecco’s modified Eagle’s medium (DMEM), streptomycin, penicillin, trypsin, and fetal bovine serum (FBS) were purchased from Gibco/Thermo Fisher Scientific (Carlsbad, CA, USA). B16F10 cells were cultured in a DMEM solution comprising 10% heat-inactivated FBS, penicillin (100 IU/mL), and streptomycin (100 µg/mL), at 37 °C in a humidified 5% CO2 atmosphere. Experiments for anti-melanogenesis activity, cell viability, and anti-tyrosinase activity were assayed on these cells in 96- or 6-well culture plates.
Cell viability assays for B16F10 were performed using the EZ-Cytox assay (EZ-3000, DoGenBio, Seoul, Korea). In brief, B16F10 cells were seeded in a 96-well plate at a density of 1 × 10^4 cells/well, and cultured at 37 °C for 24 h in a humidified 5% CO2 atmosphere. The next day, B16F10 cells were exposed to six concentrations of 1a or 1b (0, 1, 2, 5, 10, or 20 μM), and incubated under the same conditions for 48 h. Then, the EZ-Cytox solution (10 μL) was added to each well, and the cells mixed with the EZ-Cytox solution were further incubated for 2 h. At 450 nm, optical densities were measured using a microplate reader (VersaMax^TM, Molecular Devices, Sunnyvale, CA, USA).

Data set [3] concerns B16F10 murine melanoma cells. Description: Extracellular melanin content (melanin release into medium) in α-MSH/IBMX-stimulated cells. Type of data set: cell-based. The method, then: The anti-melanogenic activities of 1a and 1b were determined using a standard melanin content assay, with minor changes. Briefly, B16F10 cells were seeded in the wells of a 6-well plate at a density of 1 × 10^5 cells/well, and allowed to adhere to well bottoms over 24 h under the conditions used for cell culture (Section 2.3.5). […] Absorbances of culture media at 405 nm were used to determine extracellular melanin contents.

Data set [4] relates to B16F10 murine melanoma cells. In words: Intracellular melanin content in α-MSH/IBMX-stimulated cells. Type of data set: cell-based. The method, then:
The cultured cells were rinsed with PBS twice and pellets were dissolved in 200 µL of 1N-NaOH solution containing 10% DMSO for 1 h at 60 °C. Cell lysates were then transferred to a 96-well plate, and the melanin absorbances were measured in aqueous DMSO at 405 nm using a microplate reader (VersaMax^TM, Molecular Devices, Sunnyvale, CA, USA).

For data set [5], the target named is T2, cellular tyrosinase in B16F10 cells (Mus musculus, UniProt P11344).
T2 construct: endogenous in cells; host or cells: B16F10 murine melanoma cells, stimulated with alpha-MSH and IBMX
T2 sequence (P11344 19-533): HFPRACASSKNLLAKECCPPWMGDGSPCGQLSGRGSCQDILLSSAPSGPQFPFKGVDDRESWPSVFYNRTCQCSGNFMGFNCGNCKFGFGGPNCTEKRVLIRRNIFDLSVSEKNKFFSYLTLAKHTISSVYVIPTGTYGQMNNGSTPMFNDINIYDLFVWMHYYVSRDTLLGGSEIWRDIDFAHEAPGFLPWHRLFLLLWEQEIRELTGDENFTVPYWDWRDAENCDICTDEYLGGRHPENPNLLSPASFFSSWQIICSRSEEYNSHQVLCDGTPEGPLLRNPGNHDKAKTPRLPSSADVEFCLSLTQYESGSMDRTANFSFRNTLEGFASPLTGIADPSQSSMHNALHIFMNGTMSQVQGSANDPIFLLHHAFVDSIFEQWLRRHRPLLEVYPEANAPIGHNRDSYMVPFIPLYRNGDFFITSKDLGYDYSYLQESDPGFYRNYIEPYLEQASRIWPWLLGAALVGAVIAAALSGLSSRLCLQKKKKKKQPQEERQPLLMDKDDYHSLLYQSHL
Description: Cellular tyrosinase activity (L-DOPA oxidation) in α-MSH/IBMX-stimulated cells. Type of data set: cell-based, murine. The method, then:
Cellular tyrosinase activity was assessed by measuring the oxidation rate of L-DOPA as previously described, with minor modifications. In brief, B16F10 cells were seeded in a 6-well plate at 1 × 10^5 cells/well, and allowed to adhere to well bottoms for 24 h, as described in Section 2.3.5. […]. Cells were then rinsed twice with PBS, exposed to 100 µL of lysis buffer solution (90 µL of 50 mM phosphate buffer (pH 6.5), 5 µL of 2 mM PMSF, and 5 µL of 20% Triton X-100), and lysed at −80 °C for 30 min. After defrosting, cell lysates were transferred to microcentrifuge tubes and centrifuged at 12,000 rpm for 30 min at 4°C, and supernatants (80 µL) were mixed with 20 µL of L-DOPA (2 mg/mL) in a 96-well plate, and incubated for 10 min at 37 °C. Absorbances were measured at 475 nm using a microplate reader (VersaMax^TM, Molecular Devices, Sunnyvale, CA, USA).

Where [6] appears, read: read-out: Mushroom tyrosinase inhibition (%).
[7] abbreviates: 10 µM, compared with kojic acid 20 µM.

One compound from PMC9311798, “A Novel Class of Potent Anti-Tyrosinase Compounds with Antioxidant Activity, 2-(Substituted phenyl)-5-(trifluoromethyl)benzo[d]thiazoles: In Vitro and In Silico Insights” (Antioxidants, 2022) can be followed below.

T1 sequence (C7FF04 1-392 limits assumed): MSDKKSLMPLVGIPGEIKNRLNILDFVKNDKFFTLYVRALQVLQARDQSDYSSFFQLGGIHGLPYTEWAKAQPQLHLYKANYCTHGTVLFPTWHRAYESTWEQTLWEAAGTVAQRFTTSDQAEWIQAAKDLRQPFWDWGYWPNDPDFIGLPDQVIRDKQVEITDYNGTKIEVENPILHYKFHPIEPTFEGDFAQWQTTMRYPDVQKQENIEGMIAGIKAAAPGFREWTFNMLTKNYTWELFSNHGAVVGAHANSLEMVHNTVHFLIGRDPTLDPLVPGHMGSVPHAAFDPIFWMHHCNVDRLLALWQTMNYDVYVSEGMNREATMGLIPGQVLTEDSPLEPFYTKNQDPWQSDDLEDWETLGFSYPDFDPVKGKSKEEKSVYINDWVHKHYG

For the compound `Oc1ccc(-c2nc3cc(C(F)(F)F)ccc3s2)cc1` [Compound 1a, 4-(5-(Trifluoromethyl)benzo[d]thiazol-2-yl)phenol], the melting point (as a rule, the temperature, or range, at which the solid turns liquid) was 187.2 to 188.9 °C. In addition, the midpoint of inhibition in data set [1] (L-tyrosine as substrate), the IC50, lay at 54.2 ± 0.82 µM. Moreover, in data set [1] (setting [6]), the inhibition (usually the share of the control response that was lost under treatment) at 10 µM is 30.4 ± 0.31% and the inhibition at 50 µM came to 48.2 ± 0.25%. Further, the “cytotoxic effect on B16F10 cell viability” value in data set [2] is recorded as “Neither compound exhibited a significant cytotoxic effect”. Also, in data set [3] (20 µM), the melanin release result is listed as “reduced melanin release to control levels”. For the same compound, the “effect on melanin content in media” value in data set [3] (5, 10, 20 µM, α-MSH (1 µM) + IBMX (200 µM), 48 h) is “concentration-dependently and significantly reduced melanin content increases”. In data set [4] (setting [7]), the “inhibition of α-MSH/IBMX-induced intracellular melanin increase” value was “more potently inhibited α-MSH/IBMX-induced increases in melanin than kojic acid at 20 µM”. Besides, in data set [4] (5, 10, 20 µM, α-MSH + IBMX, 48 h), the “effect on intracellular melanin content” value is “significantly and concentration-dependently reduced intracellular melanin increases”. Moreover, the cellular tyrosinase activity result in data set [5] (setting [7]) is recorded as “reduced tyrosinase activity to that achieved by 20 µM kojic acid”. In data set [5] (5, 10, 20 µM, IBMX + α-MSH, 48 h), the “effect on cellular tyrosinase activity” value was “significantly and concentration-dependently suppressed”.
